Data reported in patent US10519118B2, “KDM1A inhibitors for the treatment of disease” (Imago Biosciences, Inc., priority 2015, dated 2019).
Several values for one entry are separate records, joined by “and”; a condition that tells them apart may be missing. Equal values may be shown once.

Assays:
Assay type in all cases: physicochemical
[1] = Solid-state storage stability at elevated temperature and humidity (40° C./75% RH, 25° C./95-97% RH)
[2] = Gravimetric vapour sorption (GVS), hygroscopicity; conditions: for hygroscopicity: in words
Protocol: Typically 5-20 mg of sample was placed in a tared mesh stainless steel basket under ambient conditions. The sample was loaded and unloaded at 40% RH and 25° C. (typical room conditions). A moisture sorption isotherm was performed as outlined below (2 scans giving 1 complete cycle). The standard isotherm was performed at 25° C. at 10% RH intervals over a 0-90% RH range. Data analysis was carried out using Microsoft Excel using DVS Analysis Suite v6.2 (or 6.1 or 6.0).
Sorption isotherms were obtained using a SMS DVS Intrinsic moisture sorption analyzer, controlled by DVS Intrinsic Control software v1.0.1.2 (or v 1.0.1.3). The sample temperature was maintained at 25° C. by the instrument controls. The humidity was controlled by mixing streams of dry and wet nitrogen, with a total flow rate of 200 mL/min The relative humidity was measured by a calibrated Rotronic probe (dynamic range of 1.0-100% RH), located near the sample. The weight change, (mass relaxation) of the sample as a function of % RH was constantly monitored by the microbalance (accuracy±0.005 mg).

[3] = Solvent solubility assessment with increasing volumes of solvent; set-up: key to Solubility observation: # = clear solution; x = suspension
Protocol: Example 1 was treated with increasing volumes of solvent (2-propanol (IPA), acetone, methylethyl ketone, ethyl acetate, tetrahydrofuran, acetonitrile, 1,4-dioxane, 90:10 IPA:water, 90:10 THF:water, tert-butylmethyl ether (MTBE), and n-heptane) until the material fully dissolved or until a maximum of 100 vol. had been used. After each addition of solvent, the system was stirred at 25° C. for 10 min before the addition of a new aliquot of solvent. Example 1 was readily soluble in 2-propanol (IPA), acetone, methylethyl ketone, ethyl acetate, tetrahydrofuran, acetonitrile, 1,4-dioxane, 90:10 IPA:water, and 90:10 THF:water, dissolving readily in 10 vol. solvent. MTBE and n-heptane were identified as anti-solvents when Example 1 was not soluble in 100 vol. solvent.
Amorphous Example 1 (10 mg) was treated with increasing volumes of solvent at 25° C. with stirring (Table #). […] For those instances where dissolution was not observed, the samples were placed at 50° C. for 10 minutes. To all samples still in suspension, a further 10 volumes of solvents were added and the sample placed at 25° C. The temperature was then once again increased to 50° C. and maintained until the end of the experiment. Further solvent was added until the material fully dissolved or until a maximum of 70 volumes had been used. Hydrochloric acid was then added (1.1 equivalents) to all samples. A cooling ramp was set to 5° C. at 0.1° C./min and the solutions or oils were stirred at this temperature overnight, yielding oils or solutions.
Crystalline bis tosylate Form 2 (30 mg) was treated with increasing volumes of solvent (n-Heptane, diethyl ether, ethyl acetate, isopropyl acetate, methylisobutyl ketone, 2-propanol, methylethyl ketone, acetone, dimethyl sulfoxide, water, tert-butylmethyl ether, cyclohexane, 1,4-dioxane, toluene, chloroform, 1,2-dimethoxyethane, tetrahydrofuran, N,N-dimethylformamide, acetonitrile, nitromethane, N-methylpyrrolidone, tetrahydrofuran:water 95:5, 2-propanol:water 95:5, or acetone:water 95:5 at 5, 10, 20, 30, 50, 70, or 100 vol total) until the material fully dissolved or until a maximum of 100 vol had been added. After each addition of solvent, the system was shaken gently for 10 minutes at 50° C. and then allowed to stand at ambient conditions for 5 minutes before the addition of a new aliquot of solvent. After the assessment was completed, any suspensions obtained were matured and clear solutions were cooled to 4° C. and held isothermally.

[4] = Chemical stability of Example 1 free base lots, HPLC purity re-test
Protocol: Various lots of Example 1 were analyzed by HPLC shortly after synthesis (analysis from 1-24 hours post-synthesis) and re-tested for purity a unit of time later.
Purity analysis was performed on an Agilent HP1100 series system equipped with a diode array detector and using ChemStation software vB.04.03 using one of the methods detailed below: […]

CN1CCN(C(=O)C(CN[C@@H]2C[C@H]2c2ccc(F)cc2)NC(=O)c2ccc(-n3ccnn3)cc2)CC1 (stereo partly drawn) [Example 1, N-[3-[[(1R,2S)-2-(4-Fluorophenyl)cyclopropyl]amino]-1-(4-methylpiperazin-1-yl)-1-oxopropan-2-yl]-4-(1H-1,2,3-triazol-1-yl)benzamide]
behaviour at high humidity ([1]; free base form): deliquesces | stability at elevated storage conditions ([1]; free base, 25° C./97% RH and 40° C./75% RH): deliquesced | hygroscopicity [2]: hygroscopic | Solubility observation ([3]; 1-Butanol, 10 vol 25° C.): # | Solubility observation ([3]; 1-Propanol, 10 vol 25° C.): # | Solubility observation ([3]; 2-Propanol, 10 vol 25° C.): # | solvent volume needed to dissolve ([3]; 25° C., IPA, acetone, methylethyl ketone, ethyl acetate, THF, acetonitrile, 1,4-dioxane, 90:10 IPA:water, 90:10 THF:water): 10 vol | solvent volume needed to dissolve ([3]; 25° C., MTBE and n-heptane (anti-solvents)): > 100 vol | Solubility observation ([3]; Acetone, 10 vol 25° C.): # | Solubility observation ([3]; Acetone:Water (90:10), 10 vol 25° C.): # | Solubility observation ([3]; Acetone:Water (95:5), 10 vol 25° C.): # | Solubility observation ([3]; Acetonitrile, 10 vol 25° C.): # | Solubility observation ([3]; Anisole, 10 vol 25° C.): # | Solubility observation ([3]; Cyclohexane, 10 vol 25° C.): oil | Solubility observation ([3]; Cyclohexane, 10 vol 50° C.): oil | Solubility observation ([3]; Cyclohexane, 20 vol 25° C.): oil | Solubility observation ([3]; Cyclohexane, 20 vol 50° C.): oil | Solubility observation ([3]; Cyclohexane, 40 vol 50° C.): oil | Solubility observation ([3]; Cyclohexane, 70 vol 50° C.): oil | Solubility observation ([3]; Dichloromethane, 10 vol 25° C.): # | Solubility observation ([3]; Diethyl ether, 10 vol 25° C.): oil | Solubility observation ([3]; Diethyl ether, 10 vol 50° C.): oil | Solubility observation ([3]; Diethyl ether, 20 vol 25° C.): oil | Solubility observation ([3]; Diethyl ether, 20 vol 50° C.): oil | Solubility observation ([3]; Diethyl ether, 40 vol 50° C.): oil | Solubility observation ([3]; Diethyl ether, 70 vol 50° C.): oil | Solubility observation ([3]; Dimethyl sulfoxide, 10 vol 25° C.): # | Solubility observation ([3]; EtOH:Water (85:15), 10 vol 25° C.): # | Solubility observation ([3]; Ethanol, 10 vol 25° C.): # | Solubility observation ([3]; IPA:Water (85:15), 10 vol 25° C.): # | Solubility observation ([3]; Isopropyl acetate, 10 vol 25° C.): # | Solubility observation ([3]; MEK, 10 vol 25° C.): # | Solubility observation ([3]; MIBK, 10 vol 25° C.): # | Solubility observation ([3]; MeOH:Water (85:15), 10 vol 25° C.): # | Solubility observation ([3]; Methanol, 10 vol 25° C.): # | Solubility observation ([3]; Methyl acetate, 10 vol 25° C.): # | Solubility observation ([3]; Propyl acetate, 10 vol 25° C.): # | Solubility observation ([3]; Toluene, 10 vol 25° C.): # | Solubility observation ([3]; Water, 10 vol 25° C.): x | Solubility observation ([3]; Water, 10 vol 50° C.): x | Solubility observation ([3]; Water, 20 vol 25° C.): x | Solubility observation ([3]; Water, 20 vol 50° C.): oil | Solubility observation ([3]; Water, 40 vol 50° C.): oil | Solubility observation ([3]; Water, 70 vol 50° C.): oil | solvent volume needed to dissolve ([3]; amorphous free base, most solvents at 25° C.): 10 volumes | observation in solvent ([3]; amorphous free base, water, diethyl ether, cyclohexane, up to 70 volumes, 25-50° C.): oils eventually formed | Re-Test Purity ([4]; free base Lot 1, 49 days between tests): 82% | Re-Test Purity ([4]; free base Lot 2, 16 days between tests): 72% | stability at ambient conditions ([4]; free base form): degrades at ambient conditions over time | Initial Purity ([4]; free base lots, HPLC 1-24 hours post-synthesis): 93% and 81%

O=C(O)C(O)C(O)C(=O)O (stereo not drawn) [tartrate]
Storage at 40° C. and 75% RH (form by XRPD) ([1]; one week / 7 days): no change in form was observed | Storage at both 40° C. and 75% RH and 25° C. and 95% RH (form, purity) ([1]; scaled-up salts): changes in crystallinity and form | GVS water uptake ([2]; 25° C., full cycle 0-90% RH): ~30 % w/w | hygroscopicity [2]: highly hygroscopic

CN1CCN(C(=O)[C@H](CCCN[C@@H]2C[C@H]2c2ccc(F)cc2)NC(=O)c2ccc(-n3ccnn3)cc2)CC1.Cc1ccc(S(=O)(=O)O)cc1.Cc1ccc(S(=O)(=O)O)cc1 [Example 1 bis tosylate Form 2, N—((S)-5-((1R,2S)-2-(4-fluorophenyl)cyclopropylamino)-1-(4-methylpiperazin-1-yl)-1-oxopentan-2-yl)-4-(1H-1,2,3-triazol-1-yl)benzamide bis-tosylate Form 2]
solvent volume needed to dissolve ([3]; crystalline bis tosylate Form 2, all other solvents tested incl. water, remained a suspension): > 100 vol | solvent volume needed to dissolve ([3]; crystalline bis tosylate Form 2, dimethylsulfoxide and N,N-dimethylformamide, 50° C. shaking): 5 vol | solvent volume needed to dissolve ([3]; crystalline bis tosylate Form 2, tetrahydrofuran:water 95:5): 10 vol
